Source: US20040044006A1, “Methods of use of quinolone compounds against pneumococcal and haemophilus bacteria” (priority 1999, published 2004)
Like-named read-outs stand apart in the source and are kept apart here.

Key:
pneumococcal strains = experiment: Microbroth dilution MICs of strains tested by time-kill and PAE; assay type: cell-based; details: Streptococcus pneumoniae, read-out: Microdilution MIC
How it was run: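 Broth MICs per NCCLS in cation-adjusted Mueller-Hinton broth with 5% lysed defibrinated horse blood. Used for 12 time-kill and 6 PAE strains. S. pneumoniae ATCC 49619 run as quality control.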

[1] = system: quinolone-resistant Haemophilus influenzae strains; experiment: Microdilution MIC determination in HTM for quinolone-resistant Haemophilus influenzae strains; assay type: cell-based; details: 9 quinolone-resistant Haemophilus influenzae strains
How it was run: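 Broth microdilution in HTM, inoculum from 24 h chocolate agar colonies by direct suspension to a final 3-8×10^5 CFU/ml. Incubated in ambient air at 35° C. for 20-24 hours; MIC read as the lowest concentration with no growth.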

[2] = system: pneumococci with ciprofloxacin MICs ≧8 μg/ml; experiment: Quinolone agar dilution MICs of 28 ciprofloxacin resistant pneumococcal strains, correlated with QRDR mutations; assay type: cell-based, Streptococcus pneumoniae
Protocol: Additionally these strains were tested for mutations in parC, gyrA, parE, and gyrB (Pan, et al. Antimicrob. Agents Chemother. 40:2321-2326, 1996) and for efflux mechanism (Brenwald, et ail., Antimicrob. Agents Chemother. 42:2032-2035, 1998).
Gemifloxacin susceptibility powder was obtained from SmithKline Beecham Laboratories, Harlow, UK. Agar dilution methodology was performed on 28 strains as described previously (M. R. Jacobs, Clin. Infect. Dis. 15: 119-127, […] and M. R. Jacobs, Rev. Med. Microbiol. 6:77-93, 1995), using Mueller-Hinton altar (BBL Microbiology Systems, Cockeysville, Md.) supplemented with 5% sheep blood. Standard quality control strains, including Streptococcus pneumoniae ATCC 49619, were included in each run of agar dilution MICs.

[3] = system: quinolone resistant pneumococci; experiment: Determination of efflux mechanism: MICs in the presence and absence of reserpine; assay type: cell-based, Streptococcus pneumoniae
Protocol: MICs were determined in the presence and absence of 10 μg/ml of reserpine (Sigma Chemicals, St. Louis, Mo.) as known in the art.
MICs were determined in the presence and absence of […] of reserpine (Sigma Chemicals, St. Louis, Mo., USA) as described previously (Brenwald, et al., Antimicrob. Agents Chemother. 42:2039-2035, 1998 and Davies, et al., Antimicrob. Agents Chemother. 43:1177-1182S, 1999).

[4] = agar dilution, 28 strains with ciprofloxacin MICs ≧8.0 μg/ml

C[C@@H]1CN(c2c(F)c(N)c3c(=O)c(C(=O)O)cn(C4CC4)c3c2F)C[C@H](C)N1 [Sparfloxacin, sparfloxacin]
1 µg/mL: MIC50 [1] | MIC ([2]; Streptococcus pneumoniae, strain 3, ParC D83-N, ParE I460-V, GyrA S81-F, GyrB None) | MIC ([2]; Streptococcus pneumoniae, strain 3, ParC D83-N, ParE I460-V, GyrA S83-F, GyrB None) | MIC ([2]; Streptococcus pneumoniae, strain 4, ParC S79-F, ParE I460-V, GyrA S81-F, GyrB None) | MIC ([2]; Streptococcus pneumoniae, strain 4, ParC S79-F, ParE I460-V, GyrA S83-F, GyrB None) | MIC ([2]; Streptococcus pneumoniae, strain 5, ParC R95-C, ParE D435-N, GyrA S81-F, GyrB None) | MIC ([2]; Streptococcus pneumoniae, strain 5, ParC R95-C, ParE D435-N, GyrA S83-F, GyrB None) | MIC ([2]; Streptococcus pneumoniae, strain 7, ParC None, ParE I460-V, GyrA None, GyrB None) | MIC ([2]; Streptococcus pneumoniae, strain 8, ParC S79-Y, ParE None, GyrA None, GyrB None) | MIC ([2]; Streptococcus pneumoniae, strain 12, ParC S79-F, ParE I460-V, GyrA None, GyrB D435-N)
> 1 µg/mL: MIC ([2]; Streptococcus pneumoniae, read-out: MICs in strains with three or four QRDR mutations, 20 strains, bound holds in all 20 (ciprofloxacin, levofloxacin, sparfloxacin), 19 (grepafloxacin), 10 (trovafloxacin), 18 (gemifloxacin))
0.25 to 8.0 µg/mL: MIC Range [1]
8.0 µg/mL: MIC50 [2, 4]
one: number of strains with lower MICs in the presence of reserpine ([3]; of 28 quinolone resistant strains, 10 μg/ml reserpine)
≥ 1 µg/mL: MIC ([2]; Streptococcus pneumoniae, read-out: MICs in strains with three or four QRDR mutations, 21 strains, bound holds in all 21 (ciprofloxacin, levofloxacin, sparfloxacin), 20 (grepafloxacin), 11 (trovafloxacin), 19 (gemifloxacin))
2X: Number of dilutions decrease after incubation with reserpine ([3]; strain 5) | lower MIC in the presence of reserpine (efflux mechanism) ([3]; strain 5, 10 μg/ml reserpine)
8 µg/mL: MIC50 ([2]; Streptococcus pneumoniae) | MIC ([2]; Streptococcus pneumoniae, strain 6, ParC S79-Y, ParE I460-V, GyrA E85-K, GyrB None) | MIC ([2]; Streptococcus pneumoniae, strain 6, ParC S79-Y, ParE I460-V, GyrA E87-K, GyrB None) | MIC ([2]; Streptococcus pneumoniae, strain 13, ParC S79-F, ParE I460-V, GyrA None, GyrB E474-K) | MIC ([2]; Streptococcus pneumoniae, strain 14, ParC S79-F, ParE I460-V, GyrA S81-F, GyrB None) | MIC ([2]; Streptococcus pneumoniae, strain 14, ParC S79-F, ParE I460-V, GyrA S83-F, GyrB None) | MIC ([2]; Streptococcus pneumoniae, strain 15, ParC 79-F, ParE I460-V, GyrA S83-F, GyrB None) | MIC ([2]; Streptococcus pneumoniae, strain 15, ParC S79-F, ParE I460-V, GyrA S81-F, GyrB None) | MIC ([2]; Streptococcus pneumoniae, strain 16, ParC S79-F, ParE I460-V, GyrA S81-F, GyrB None) | MIC ([2]; Streptococcus pneumoniae, strain 16, ParC S79-F, ParE I460-V, GyrA S83-F, GyrB None) | MIC ([2]; Streptococcus pneumoniae, strain 17, ParC D83-N, ParE None, GyrA S81-F, GyrB None) | MIC ([2]; Streptococcus pneumoniae, strain 17, ParC D83-N, ParE None, GyrA S83-F, GyrB None) | MIC ([2]; Streptococcus pneumoniae, strain 18, ParC S79-F, ParE I460-V, GyrA S81-F, GyrB None) | MIC ([2]; Streptococcus pneumoniae, strain 18, ParC S79-F, ParE I460-V, GyrA S83-F, GyrB None) | MIC ([2]; Streptococcus pneumoniae, strain 19, ParC S79-F, ParE I460-V, GyrA S81-F, GyrB None) | MIC ([2]; Streptococcus pneumoniae, strain 19, ParC S79-F, ParE I460-V, GyrA S83-F, GyrB None) | MIC ([2]; Streptococcus pneumoniae, strain 20, ParC S79-F, ParE I460-V, GyrA E85-K, GyrB None) | MIC ([2]; Streptococcus pneumoniae, strain 20, ParC S79-F, ParE I460-V, GyrA E87-K, GyrB None) | MIC ([2]; Streptococcus pneumoniae, strain 21, ParC S79-F, ParE I460-V, GyrA S81-F, GyrB None) | MIC ([2]; Streptococcus pneumoniae, strain 21, ParC S79-F, ParE I460-V, GyrA S83-F, GyrB None) | MIC ([2]; Streptococcus pneumoniae, strain 22, ParC S79-F, ParE I460-V, GyrA S81-Y, GyrB None) | MIC ([2]; Streptococcus pneumoniae, strain 22, ParC S79-F, ParE I460-V, GyrA S83-Y, GyrB None) | MIC ([2]; Streptococcus pneumoniae, strain 23, ParC S79-Y, ParE None, GyrA S81-A, GyrB None) | MIC ([2]; Streptococcus pneumoniae, strain 23, ParC S79-Y, ParE None, GyrA S83-A, GyrB None)
0.25 µg/mL: MIC (pneumococcal strains; strain 2 (S) penicillin susceptible) | MIC (pneumococcal strains; strain 6 (I) penicillin intermediate) | MIC (pneumococcal strains; strain 7 (I) penicillin intermediate) | MIC (pneumococcal strains; strain 8 (I) penicillin intermediate) | MIC (pneumococcal strains; strain 10 (I)) | MIC (pneumococcal strains; strain 11 (R) penicillin resistant)
2 ×: lower MICs in the presence of reserpine, fold range over affected strains ([3]; 28 quinolone resistant strains, 10 μg/ml reserpine)
> 32 µg/mL: MIC ([2]; Streptococcus pneumoniae, strain 26, ParC S79-F, ParE None, GyrA S81-Y, GyrB None) | MIC ([2]; Streptococcus pneumoniae, strain 26, ParC S79-F, ParE None, GyrA S83-Y, GyrB None) | MIC ([2]; Streptococcus pneumoniae, strain 27, ParC S79-Y, ParE I460-V, GyrA S81-F, GyrB None) | MIC ([2]; Streptococcus pneumoniae, strain 27, ParC S79-Y, ParE I460-V, GyrA S83-F, GyrB None) | MIC ([2]; Streptococcus pneumoniae, strain 28, ParC D83-G N91-D, ParE None, GyrA S81-F S114-G, GyrB None) | MIC ([2]; Streptococcus pneumoniae, strain 28, ParC cell empty, ParE None, GyrA S83-F and S116-G, GyrB None)
2 µg/mL: MIC ([2]; Streptococcus pneumoniae, strain 9, ParC S79-Y, ParE None, GyrA None, GyrB None)
16.0 µg/mL: MIC90 [2, 4]
16 µg/mL: MIC (pneumococcal strains; strain 4 (S) penicillin susceptible, quinolone-resistant) | MIC90 ([2]; Streptococcus pneumoniae)
32 µg/mL: MIC (pneumococcal strains; strain 3 (S) penicillin susceptible, quinolone-resistant)
4 µg/mL: MIC ([2]; Streptococcus pneumoniae, strain 1, ParC S79-F, ParE I460-V, GyrA S81-F, GyrB None) | MIC ([2]; Streptococcus pneumoniae, strain 1, ParC S79-F, ParE I460-V, GyrA S83-F, GyrB None) | MIC ([2]; Streptococcus pneumoniae, strain 10, ParC S79-F, ParE I460-V, GyrA S81-C, GyrB None) | MIC ([2]; Streptococcus pneumoniae, strain 10, ParC S79-F, ParE I460-V, GyrA S83-C, GyrB None) | MIC ([2]; Streptococcus pneumoniae, strain 11, ParC S79-F, ParE I460-V, GyrA S81-F, GyrB None) | MIC ([2]; Streptococcus pneumoniae, strain 11, ParC S79-F, ParE I460-V, GyrA S83-F, GyrB None)
0.5 µg/mL: MIC (pneumococcal strains; strain 5 (I) penicillin intermediate) | MIC (pneumococcal strains; strain 9 (R) penicillin resistant) | MIC (pneumococcal strains; strain 12 (R) penicillin resistant)
0.125 µg/mL: MIC (pneumococcal strains; strain 1 (S) penicillin susceptible)
